{"source": "patent US20030105046A1", "about": "“Interleukin converting enzyme (ICE) and central nervous system damage” (The General Hospital Corporation, priority 1997, published 2003)", "key": {"[1]": {"molecular_target": "Interleukin-1beta converting enzyme (ICE; caspase-1), wild-type murine, endogenous (mouse) (UniProt P29452)", "sequence (P29452 whole entry D56N)": "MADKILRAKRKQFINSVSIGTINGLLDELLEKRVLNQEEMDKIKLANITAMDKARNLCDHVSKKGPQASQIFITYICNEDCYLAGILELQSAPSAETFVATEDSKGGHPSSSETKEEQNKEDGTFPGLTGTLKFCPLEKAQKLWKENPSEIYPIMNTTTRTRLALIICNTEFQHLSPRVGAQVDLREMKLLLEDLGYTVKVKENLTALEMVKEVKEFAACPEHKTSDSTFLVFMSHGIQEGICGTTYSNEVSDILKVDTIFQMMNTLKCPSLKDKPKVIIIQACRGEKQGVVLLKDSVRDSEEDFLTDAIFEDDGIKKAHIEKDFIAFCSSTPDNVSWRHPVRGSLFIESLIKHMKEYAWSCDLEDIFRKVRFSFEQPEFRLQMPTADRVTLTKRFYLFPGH", "experiment": "cell-based or functional assay"}, "[2]": {"system": "traumatic brain injury in C57BL/6 mice", "experiment": "Weight drop traumatic brain injury, lesion volume by TTC staining", "type": "in vivo, mouse", "protocol": "Brain trauma experiments and lesion quantification were performed essentially as described (Chan, P. H., et al., Ann. NY Acad. Sci. 738:93-103 (1994)). Spontaneously ventilating adult mice were initially anesthetized with halothane in 70% N2O and 30% O2, and fixed in a stereotactic frame. Before trauma, an atraumatic craniectomy was performed by removing the right parietal bone posterior to the coronal, lateral to the sagittal, and anterior to the lambdoid suture. Laterally, the craniectomy was extended to the insertion of the temporalis muscle. […] A 20 g weight was dropped inside a cylinder from a height of 150 mm onto the piston (final speed v=1.70 m/s). Twenty-four hours after trauma, brains were removed and sectioned into five coronal (2 mm) slices and stained with 2% 2,3,5-triphenyl tetrazolium chloride (TTC) as described for a weight drop trauma model (Chan, P. H., et al., Ann. NY Acad. Sci. 738:93-103 (1994)). Surgical procedure as well as quantification of lesion size was performed by an investigator naive to the animal identity. Lesion volume was calculated using an image analysis system (M4, Imaging Research, St. Catherines, Ontario, Canada) from the total lesion volume integrated from the volumes of each single section, after subtracting the volume of the deficient cortex as caused by piston penetration. The volume of the piston penetration was calculated as that of a cylinder (pr^2h=3.14×1.5^2×3 mm^3=21.2 mm^3), where r is the radius of the piston, and h the depth of penetration. The trauma protocol was approved by the IACUC. The NSE-M17Z and wild-type littermate mice were bred from C57BL/6 background, and the wild-type mice used for zVAD-fink injection experiments were C57BL/6 (Taconic Farms, Germantown, N.Y.). NSE-M17Z mice were genotyped as previously described (Friedlander, R. M., et al., J. Exp. Med. 185:933-940 (1997)). zVAD-fmk (480 ng) or vehicle (DMSO 0.4%) was injected i.c.v. (2 μl; bregma −0.9 mm lateral, −0.1 mm posterior, −3.1 mm deep) 1 hour before or 1 hour after trauma.\nData are presented as mean±SEM. Statistical comparisons were made by Student's t-test. For comparison of lesion size two-way ANOVA followed by Tukey posthoc tests was applied. P<0.05 was considered statistically significant. For statistical evaluation by Student's t-test, data on OH production was log transformed."}, "[3]": {"system": "apoptosis in an cell-free system", "conditions": "Nicholson et al., Nature 376 (1995), read-out: Dose causing 50% inhibition of apoptosis; cited from earlier work"}}, "data": [{"substance": "fused mutant ICE (C284G)-lacZ protein (M17Z), expressed in neurons of NSE-M17Z transgenic mice (from UniProt P29452 1-402)", "values": [{"measurement": "mature IL-1β in whole brain lysates after systemic LPS challenge (ELISA specific for mature IL-1β)", "setting": "[1]", "value": 74.7, "unit": "% less"}]}, {"substance": "N-benzyloxycarbonyl-Val-Ala-Asp-fluoromethylketone [zVAD-fink]", "values": [{"measurement": "Total lesion volume vs. vehicle (significance)", "setting": "[2]; 480 ng i.c.v. 1 hour after trauma, 24 hours following impact", "value": "not significantly different"}, {"measurement": "Size of lesion in the two most anterior sections (2-6 mm) vs. vehicle", "setting": "[2]; 480 ng i.c.v. 1 hour after trauma, P<0.05, n=5", "value": "significantly reduced"}, {"measurement": "Reduction of total lesion volume vs. vehicle-injected mice", "setting": "[2]; 480 ng i.c.v. 1 hour prior to impact, lesion assessed 24 hours following trauma", "value": 53, "unit": "%"}, {"measurement": "Reduction of lesion volume vs. vehicle-injected mice", "setting": "[2]; 480 ng i.c.v. one hour following trauma, lesion assessed 24 hours following trauma", "value": 19, "unit": "%"}]}, {"substance": "Ac-DEVD-CHO", "values": [{"measurement": "IC50", "setting": "[3]", "value": 1000, "unit": "nM"}]}]}
